What was measured:
Pf Dd2-B2 ABS parasites = test: 72-h asexual blood stage (ABS) growth inhibition assay, Dd2-B2; type: cell-based, Plasmodium falciparum; conditions: Dd2-B2 wild-type, 72 h; read-out: Mean IC50, 72 h ABS activity
Description: (§1) Synchronicity was achieved using three rounds of sorbitol treatment on early rings, spaced 48 h apart, followed by magnetic purification of segmented schizonts following the final sorbitol treatment. Parasites were highly synchronous to within a 3 h window of development. Assays were repeated on at least three independent occasions (each with technical duplicates) and statistical significance was assessed using Mann Whitney U tests.

sel. Dd2-B2 TKL3T1268R = test: 72-h ABS assay, MMV030084-selected line; type: cell-based, Plasmodium falciparum
Description: as §1
The resulting MMV030084-resistant parasites were cloned by limiting dilution ([Baker et al., 2017]) to obtain genetically homogenous cultures for further phenotyping and whole-genome sequencing. A second round of […]. […] Drug susceptibility of resistant lines was assessed using a 72 h ABS assay as described above, and a Mann Whitney U test was applied to assess statistically significant differences.

CC(C)(C)CNCC(C)(C)c1nc(-c2ccc(Cl)c(O)c2)c(-c2ccncc2)[nH]1 [TCMDC-140549]
IC50 (Pf Dd2-B2 ABS parasites): 210 nM
IC50 (sel. Dd2-B2 TKL3T1268R): 287 nM

Reference: publication PMC7369637, “Inhibition of Resistance-Refractory P. falciparum Kinase PKG Delivers Prophylactic, Blood Stage, and Transmission-Blocking Antiplasmodial Activity” (Cell Chemical Biology, 2020)
